# Assay results published in patent US10206904B2, “Licofelone derivatives and methods of use” (The Board of Regents of the University of Oklahoma, priority 2015, dated 2019).
# “And” between values parts separate entries of the source, which are not always exact repeats. Identical values can stand only once. Like-named read-outs stand apart in the source and are kept apart here.
# Key:
# [1] = biological target: mPGES-1 (Rattus norvegicus, UniProt Q9JHF3); details: two weeks, male F344 rats
# Procedure: (§1) Male F344 rats at 8 weeks of age treated with AOM (15 mg/Kg BW) and exposed to 2% DSS for three days. […] Further, the inflammation was scored by following below criteria: […]
# [2] = tested on: COX-1/2; details: two weeks, male F344 rats
# Procedure: as §1
# [3] = biological target: 5-LOX (Rattus norvegicus, UniProt P12527); details: two weeks, male F344 rats
# Sequence of 5-LOX (P12527 whole entry): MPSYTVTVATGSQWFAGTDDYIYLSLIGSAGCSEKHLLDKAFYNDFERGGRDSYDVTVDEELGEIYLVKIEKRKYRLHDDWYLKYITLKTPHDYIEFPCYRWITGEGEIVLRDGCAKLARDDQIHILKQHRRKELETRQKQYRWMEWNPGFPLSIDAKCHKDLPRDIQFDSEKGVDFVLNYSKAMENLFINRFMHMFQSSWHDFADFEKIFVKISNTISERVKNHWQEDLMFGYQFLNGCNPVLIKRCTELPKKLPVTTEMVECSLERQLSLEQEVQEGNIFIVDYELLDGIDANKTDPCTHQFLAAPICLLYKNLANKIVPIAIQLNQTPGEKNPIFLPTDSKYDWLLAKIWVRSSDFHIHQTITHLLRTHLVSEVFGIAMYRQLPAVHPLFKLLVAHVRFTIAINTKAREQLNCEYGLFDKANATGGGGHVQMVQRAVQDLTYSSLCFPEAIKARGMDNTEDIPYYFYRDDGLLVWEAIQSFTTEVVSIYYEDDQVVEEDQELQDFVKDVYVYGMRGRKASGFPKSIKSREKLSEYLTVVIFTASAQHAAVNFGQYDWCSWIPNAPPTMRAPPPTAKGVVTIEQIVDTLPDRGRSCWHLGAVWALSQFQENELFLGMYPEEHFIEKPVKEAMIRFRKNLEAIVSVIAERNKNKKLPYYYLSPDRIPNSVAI
# Procedure: as §1
# [4] = tested on: small intestinal polyps and colon tumors of Apc Min/+ mice; details: for intestinal tumor inhibition: high-dose (700 ppm)
# Procedure: Male Apc^Min/+ (C57BL/6J) and female wild-type littermate mice were initially purchased from The Jackson Laboratory (Bar Harbor, Me.) as founders, and our own breeding colony was established in OUHSC rodent barrier facility and genotyped according to vendor's instructions. All mice were housed 3 per cage in ventilated cages under standardized conditions (21° C., 60% relative humidity, 12 h light/12 h dark cycle, 20 air changes/hr). All mice were allowed ad libitum access to the respective diets and automated tap water purified by reverse osmosis.
# All diet ingredients for the semi-purified diets were purchased from Bioserve (Frenchtown, N.J.) and stored at 4° C. before diet preparation. Diets were based on the modified American Institute of Nutrition (AIN)-76A diet. […] Both control and experimental diets were prepared weekly and stored in a cold room. Agent content in the experimental diets was determined periodically in multiple samples taken from the top, middle, and bottom portions of individual diet preparations to verify uniform distribution.
# Genotyped Male and female Apc^Min/+ mice were used in the efficacy study. Five week old mice were distributed so that average body weights in each group were equal (10/9 Apc^Min/+ mice in each group) and were fed with AIN-76A diet for one week. […] Body weight, food, and fluid consumption were monitored weekly for signs of weight loss or lethargy that might indicate intestinal obstruction or anemia. Mice were routinely checked for any abnormalities. After 12 weeks, all mice were euthanized by CO2 asphyxiation, blood was collected immediately by heart puncture, and serum was separated by centrifugation and stored at −80° C. until further analysis. […] After necropsy, the entire intestinal tract was harvested, flushed with 0.9% NaCl and opened longitudinally from the esophagus to the distal rectum. The tissue was flattened on filter paper to expose the tumors and briefly frozen on dry ice to aid visual scoring of tumors. The number, location, and size of visible tumors in the entire intestine were determined under a dissection microscope (×5). All tumors were scored and subdivided by location (duodenal, jejunal and ileum and colon) and size (>2 mm, 1-2 or <1 mm in diameter). This procedure was completed by two individuals who were blinded to the experimental group and the genetic status of the mice. Colonic and other small intestinal tumors that required further histopathologic evaluation to identify adenoma, adenocarcinoma, and enlarged lymph nodes were fixed in 10% neutral-buffered formalin, embedded in paraffin blocks, and processed by routine H&E staining.
# All results are expressed as mean±SE and were analyzed by Student's t test. Differences were considered significant at the P<0.05 level.
# [5] = tested on: AOM-induced colon tumors; details: for % AdCA Inhibition (incidence) / % AdCA Inhibition (multiplicity) / % Inv AdCA Inhibition (incidence) / % Inv AdCA Inhibition (multiplicity) / % Non-Inv AdCA Inhibition (incidence) / % Non-Inv AdCA Inhibition (multiplicity) / % adenoma Inhibition (incidence) / % adenoma Inhibition (multiplicity) / % of CRC Tumor Inhibition (incidence) / % of CRC Tumor Inhibition (multiplicity) / AdCA Incidence (% Rats with AdCa) / AdCA Incidence (rats with AdCa/rats) / AdCA Multiplicity (Mean ± SEM) / Adenoma Incidence (% Rats with Adenomas) / Adenoma Incidence (rats with adenomas/rats) / Adenoma Multiplicity (Mean ± SEM) / Invasive AdCA Incidence (% Rats with Invasive AdCa) / Invasive AdCA Incidence (rats with Invasive AdCa/rats) / Invasive AdCA Multiplicity (Mean ± SEM) / Multiplicity Total CRC Tumors (Adenoma + AdCa) (Mean ± SEM) / Non-Inv AdCa Incidence (% Rats with Non-Inv AdCa) / Non-Inv AdCa Incidence (rats with Non-Inv AdCa/rats) / Non-Inv AdCa Multiplicity (Mean ± SEM) / Total CRC Tumors (Adenoma + AdCa) incidence (% rats) / Total CRC Tumors (Adenoma + AdCa) incidence (rats with tumors/rats): AOM-treated male F344 rats
# Procedure: After 42 weeks of experimental diet feeding and total 52 weeks of experimental duration, the rats were necropsied. After necropsy of the rats, the colonic tumors were analyzed histologically. Histopathological evaluation colonic tumor has been completed by two pathologists independently. Colonic tumors were histopathologically classified to adenomas or adenocarcinomas either exophytic (non-invasive) or endophytic (invasive).
# Colonic tumors (CTs) were induced by colon specific carcinogen, azoxymethane (AOM) (15 mg/kg by wt, once weekly for 2 weeks) in F344 rats at 8 weeks' age. […] Rats were killed by CO2 asphyxiation 36 weeks after second AOM and the colons were removed, rinsed in PBS, opened longitudinally, and flattened on a filter paper. The location and size of each tumor were noted. Tumors were removed, snap frozen, or fixed in 10% buffered formalin for 24 hours and transferred to 80% ethanol for histopathological analysis. The number and type of colon tumors (adenoma and adenocarcinoma) were analyzed histologically blinded to treatment groups and compared with control diet fed rat colonic tumors.
# [6] = 350 and 700 ppm, female Apc Min/+ mice
# [7] = 350 ppm in diet, female Apc Min/+ mice
# [8] = 350 ppm in diet, male Apc Min/+ mice
# [9] = 800 ppm in diet, saline treated male F344 rats
# Sequence of mPGES-1 (Q9JHF3 whole entry): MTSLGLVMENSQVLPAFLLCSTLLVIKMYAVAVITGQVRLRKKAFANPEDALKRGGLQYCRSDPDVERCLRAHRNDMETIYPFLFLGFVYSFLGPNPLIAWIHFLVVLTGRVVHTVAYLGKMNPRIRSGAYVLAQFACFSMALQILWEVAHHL
smiles,measurement,setting,value
"CC1(C)Cc2c(-c3ccccc3)c(-c3ccc(Cl)cc3)c(CC(=O)NCC(=O)O)n2C1 [LFA-9, licofelone-glycine]",AOM-DSS-Induced mPGES-1 (colonic mucosa),[1]; 100 ppm in diet,22.6%^
same,AOM-DSS-Induced mPGES-1 (colonic mucosa),[1]; 200 ppm in diet,33.7%^
same,AOM-DSS-Induced mPGES-1 (colonic mucosa),[1]; 400 ppm in diet,58%
same,AOM-DSS-Induced mPGES-1 (colonic mucosa),[1]; 600 ppm in diet,77%
same,AOM-DSS-Induced mPGES-1 (colonic mucosa),[1]; 800 ppm in diet,83%
same,AOM-DSS-Induced COX-1/2 (colonic mucosa),[2]; 100 ppm in diet,3.8%
same,AOM-DSS-Induced COX-1/2 (colonic mucosa),[2]; 200 ppm in diet,8.9%
same,AOM-DSS-Induced COX-1/2 (colonic mucosa),[2]; 400 ppm in diet,15.7%
same,AOM-DSS-Induced COX-1/2 (colonic mucosa),[2]; 600 ppm in diet,31.3%
same,AOM-DSS-Induced COX-1/2 (colonic mucosa),[2]; 800 ppm in diet,42.6%
same,AOM-DSS-Induced 5-LOX (colonic mucosa),[3]; 100 ppm in diet,14.5%
same,AOM-DSS-Induced 5-LOX (colonic mucosa),[3]; 200 ppm in diet,22.6%
same,AOM-DSS-Induced 5-LOX (colonic mucosa),[3]; 400 ppm in diet,63.7%
same,AOM-DSS-Induced 5-LOX (colonic mucosa),[3]; 600 ppm in diet,74.7%
same,AOM-DSS-Induced 5-LOX (colonic mucosa),[3]; 800 ppm in diet,88.3%
same,colonic tumors per mouse,[4]; [6],0.1 tumors per mouse
same,reduction in the colonic tumors,[4]; [6],90%
same,colon tumor inhibition,[4]; [7],90%
same,fewer polyps with sizes greater than 2 mm,[4]; [7],81.6%
same,colon tumor inhibition,[4]; [8],60%
same,fewer polyps with sizes greater than 2 mm,[4]; [8],76.8%
same,"total intestinal tumors (polyps), means±SEM",[4]; [8],31.6±5.99
same,suppression of polyps of greater than 2 mm size,"[4]; 700 ppm in diet, both genders, Apc Min/+ mice",more than 81%
same,inhibition of colon tumors,"[4]; 700 ppm in diet, both male and female Apc Min/+ mice",91%
same,"total intestinal tumors (polyps), means±SEM","[4]; 700 ppm in diet, female Apc Min/+ mice",15.5±1.79
same,"total intestinal tumors (polyps), means±SEM","[4]; 700 ppm in diet, male Apc Min/+ mice",24.3±3.7
same,body weights of Apc Min/+ mice versus control diet,"[4]; LFA-9 in diet (350, 700 ppm)",higher weight gains
same,intestinal tumor inhibition,[4]; female Apc Min/+ mice,73.8%
same,intestinal tumor inhibition,[4]; male Apc Min/+ mice,approximately 56%
same,"gross changes attributable to toxicity in liver, kidneys or lungs; body weight gain",[4]; wild-type mice,did not produce any gross changes attributable to toxicity
same,% AdCA Inhibition (incidence),[5]; 200 ppm in diet,60%
same,% AdCA Inhibition (multiplicity),[5]; 200 ppm in diet,77%
same,% Inv AdCA Inhibition (incidence),[5]; 200 ppm in diet,85.1%
same,% Inv AdCA Inhibition (multiplicity),[5]; 200 ppm in diet,86.0%
same,% Non-Inv AdCA Inhibition (incidence),[5]; 200 ppm in diet,63.0%
same,% Non-Inv AdCA Inhibition (multiplicity),[5]; 200 ppm in diet,72.9%
same,% adenoma Inhibition (incidence),[5]; 200 ppm in diet,53%
same,% adenoma Inhibition (multiplicity),[5]; 200 ppm in diet,38.3% and 38.27%
same,% of CRC Tumor Inhibition (incidence),[5]; 200 ppm in diet,47.5%
same,% of CRC Tumor Inhibition (multiplicity),[5]; 200 ppm in diet,64% and 64.05%
same,AdCA Incidence (% Rats with AdCa),[5]; 200 ppm in diet,(33.3%)
same,AdCA Incidence (rats with AdCa/rats),[5]; 200 ppm in diet,10/30
same,AdCA Multiplicity (Mean ± SEM),[5]; 200 ppm in diet,0.37±0.07 Tumors/Rat
same,Adenoma Incidence (% Rats with Adenomas),[5]; 200 ppm in diet,(30.0%)
same,Adenoma Incidence (rats with adenomas/rats),[5]; 200 ppm in diet,9/30
same,Adenoma Multiplicity (Mean ± SEM),[5]; 200 ppm in diet,0.50±0.07 Tumors/Rat
same,Invasive AdCA Incidence (% Rats with Invasive AdCa),[5]; 200 ppm in diet,(6.66%)
same,Invasive AdCA Incidence (rats with Invasive AdCa/rats),[5]; 200 ppm in diet,2/30
same,Invasive AdCA Multiplicity (Mean ± SEM),[5]; 200 ppm in diet,0.07 ± 0.02 Tumors/Rat
same,Multiplicity Total CRC Tumors (Adenoma + AdCa) (Mean ± SEM),[5]; 200 ppm in diet,0.87 ± 0.12 Tumors/Rat
same,Non-Inv AdCa Incidence (% Rats with Non-Inv AdCa),[5]; 200 ppm in diet,(26.7%)
same,Non-Inv AdCa Incidence (rats with Non-Inv AdCa/rats),[5]; 200 ppm in diet,8/30
same,Non-Inv AdCa Multiplicity (Mean ± SEM),[5]; 200 ppm in diet,0.30 ± 0.05 Tumors/Rat
same,Total CRC Tumors (Adenoma + AdCa) incidence (% rats),[5]; 200 ppm in diet,(46.6%)
same,Total CRC Tumors (Adenoma + AdCa) incidence (rats with tumors/rats),[5]; 200 ppm in diet,14/30
same,% AdCA Inhibition (incidence),[5]; 400 ppm in diet,67.9%
same,% AdCA Inhibition (multiplicity),[5]; 400 ppm in diet,81.3%
same,% Inv AdCA Inhibition (incidence),[5]; 400 ppm in diet,77.4%%
same,% Inv AdCA Inhibition (multiplicity),[5]; 400 ppm in diet,80.0%
same,% Non-Inv AdCA Inhibition (incidence),[5]; 400 ppm in diet,72.3%
same,% Non-Inv AdCA Inhibition (multiplicity),[5]; 400 ppm in diet,82.0%
same,% adenoma Inhibition (incidence),[5]; 400 ppm in diet,53%
same,% adenoma Inhibition (multiplicity),[5]; 400 ppm in diet,46.9%
same,% of CRC Tumor Inhibition (incidence),[5]; 400 ppm in diet,55.5% and 55.0%
same,% of CRC Tumor Inhibition (multiplicity),[5]; 400 ppm in diet,69.1% and 69.08%
same,AdCA Incidence (% Rats with AdCa),[5]; 400 ppm in diet,(26.7%)
same,AdCA Incidence (rats with AdCa/rats),[5]; 400 ppm in diet,8/30
same,AdCA Multiplicity (Mean ± SEM),[5]; 400 ppm in diet,0.30±0.07 Tumors/Rat
same,Adenoma Incidence (% Rats with Adenomas),[5]; 400 ppm in diet,(30.0%)
same,Adenoma Incidence (rats with adenomas/rats),[5]; 400 ppm in diet,9/30
same,Adenoma Multiplicity (Mean ± SEM),[5]; 400 ppm in diet,0.43±0.06 Tumors/Rat
same,Invasive AdCA Incidence (% Rats with Invasive AdCa),[5]; 400 ppm in diet,(10.0%)
same,Invasive AdCA Incidence (rats with Invasive AdCa/rats),[5]; 400 ppm in diet,3/30
same,Invasive AdCA Multiplicity (Mean ± SEM),[5]; 400 ppm in diet,0.10 ± 0.02 Tumors/Rat
same,Multiplicity Total CRC Tumors (Adenoma + AdCa) (Mean ± SEM),[5]; 400 ppm in diet,0.73 ± 0.10 Tumors/Rat
same,Non-Inv AdCa Incidence (% Rats with Non-Inv AdCa),[5]; 400 ppm in diet,(20.0%)
same,Non-Inv AdCa Incidence (rats with Non-Inv AdCa/rats),[5]; 400 ppm in diet,6/30
same,Non-Inv AdCa Multiplicity (Mean ± SEM),[5]; 400 ppm in diet,0.20 ± 0.04 Tumors/Rat
same,Total CRC Tumors (Adenoma + AdCa) incidence (% rats),[5]; 400 ppm in diet,(40.0%)
same,Total CRC Tumors (Adenoma + AdCa) incidence (rats with tumors/rats),[5]; 400 ppm in diet,12/30
same,% AdCA Inhibition (incidence),[5]; 800 ppm in diet,76%
same,% AdCA Inhibition (multiplicity),[5]; 800 ppm in diet,85.7%
same,% Inv AdCA Inhibition (incidence),[5]; 800 ppm in diet,92.5%
same,% Inv AdCA Inhibition (multiplicity),[5]; 800 ppm in diet,94.0%
same,% Non-Inv AdCA Inhibition (incidence),[5]; 800 ppm in diet,72.3%
same,% Non-Inv AdCA Inhibition (multiplicity),[5]; 800 ppm in diet,82.0%
same,% adenoma Inhibition (incidence),[5]; 800 ppm in diet,58.2%
same,% adenoma Inhibition (multiplicity),[5]; 800 ppm in diet,42%
same,% of CRC Tumor Inhibition (incidence),[5]; 800 ppm in diet,47.5%
same,% of CRC Tumor Inhibition (multiplicity),[5]; 800 ppm in diet,71.1% and 71.07%
same,AdCA Incidence (% Rats with AdCa),[5]; 800 ppm in diet,(20.0%)
same,AdCA Incidence (rats with AdCa/rats),[5]; 800 ppm in diet,6/30
same,AdCA Multiplicity (Mean ± SEM),[5]; 800 ppm in diet,0.23±0.05 Tumors/Rat
same,Adenoma Incidence (% Rats with Adenomas),[5]; 800 ppm in diet,(26.7%)
same,Adenoma Incidence (rats with adenomas/rats),[5]; 800 ppm in diet,8/30
same,Adenoma Multiplicity (Mean ± SEM),[5]; 800 ppm in diet,0.47±0.06 Tumors/Rat
same,Invasive AdCA Incidence (% Rats with Invasive AdCa),[5]; 800 ppm in diet,(3.33%)
same,Invasive AdCA Incidence (rats with Invasive AdCa/rats),[5]; 800 ppm in diet,1/30
same,Invasive AdCA Multiplicity (Mean ± SEM),[5]; 800 ppm in diet,0.03 ± 0.01 Tumors/Rat
same,Multiplicity Total CRC Tumors (Adenoma + AdCa) (Mean ± SEM),[5]; 800 ppm in diet,0.70 ± 0.10 Tumors/Rat
same,Non-Inv AdCa Incidence (% Rats with Non-Inv AdCa),[5]; 800 ppm in diet,(20.0%)
same,Non-Inv AdCa Incidence (rats with Non-Inv AdCa/rats),[5]; 800 ppm in diet,6/30
same,Non-Inv AdCa Multiplicity (Mean ± SEM),[5]; 800 ppm in diet,0.20 ± 0.04 Tumors/Rat
same,Total CRC Tumors (Adenoma + AdCa) incidence (% rats),[5]; 800 ppm in diet,(46.6%)
same,Total CRC Tumors (Adenoma + AdCa) incidence (rats with tumors/rats),[5]; 800 ppm in diet,14/30
same,AdCA Incidence,[5]; [9],0
same,AdCA Multiplicity,[5]; [9],0 Tumors/Rat
same,Adenoma Incidence,[5]; [9],0
same,Adenoma Multiplicity,[5]; [9],0 Tumors/Rat
same,Invasive AdCA Incidence,[5]; [9],0
same,Invasive AdCA Multiplicity,[5]; [9],0 Tumors/Rat
same,Multiplicity Total CRC Tumors (Adenoma + AdCa),[5]; [9],0 Tumors/Rat
same,Non-Inv AdCa Incidence,[5]; [9],0
same,Non-Inv AdCa Multiplicity,[5]; [9],0 Tumors/Rat
same,Total CRC Tumors (Adenoma + AdCa) incidence,[5]; [9],0
same,body weight retardation and observable toxicities,"[5]; chronic administration up to 800 ppm in diet, F344 rats",did not show any significant body weight retardation and any observable toxicities
